Measured values from PubChem BioAssay AID1918939 (Molecular Pharmacology Branch, DTP, NCI, 2023).

Tested on: 653999-131-R-J2-PDC complex spheroid viability
Assay: Anticancer human tumor 653999-131-R-J2-PDC patient-derived lung adenocarcinoma cell line growth inhibition
Conditions: for viability, T/C: stronger effect = lower value
Method in brief: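 Multicellular complex spheroids of tumor cells with human endothelial cells (HUVEC) and mesenchymal stem cells; the LSD1 inhibitor iadademstat was combined with standard-of-care or investigational agents. Top concentration at or near clinical Cmax, half-log dilutions; final DMSO ≤0.25%.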

[1] = curve of first compound, second compound 0.1 µM
[2] = curve of first compound, second compound 0.316 µM
[3] = curve of first compound, second compound 1 µM
[4] = curve of first compound, second compound 3.16 µM
[5] = curve of first compound, second compound 10 µM
[6] = second compound 0.1 µM, first compound 0.000949 µM
[7] = second compound 0.1 µM, first compound 0.003 µM
[8] = second compound 0.1 µM, first compound 0.00949 µM
[9] = second compound 0.1 µM, first compound 0.03 µM
[10] = second compound 0.1 µM, first compound 0.0949 µM
[11] = second compound 0.1 µM, first compound 0.3 µM
[12] = second compound 0.316 µM, first compound 0.000949 µM
[13] = second compound 0.316 µM, first compound 0.003 µM
[14] = second compound 0.316 µM, first compound 0.00949 µM
[15] = second compound 0.316 µM, first compound 0.03 µM
[16] = second compound 0.316 µM, first compound 0.0949 µM
[17] = second compound 0.316 µM, first compound 0.3 µM
[18] = second compound 1 µM, first compound 0.000949 µM
[19] = second compound 1 µM, first compound 0.003 µM
[20] = second compound 1 µM, first compound 0.00949 µM
[21] = second compound 1 µM, first compound 0.03 µM
[22] = second compound 1 µM, first compound 0.0949 µM
[23] = second compound 1 µM, first compound 0.3 µM
[24] = second compound 3.16 µM, first compound 0.000949 µM
[25] = second compound 3.16 µM, first compound 0.003 µM
[26] = second compound 3.16 µM, first compound 0.00949 µM
[27] = second compound 3.16 µM, first compound 0.03 µM
[28] = second compound 3.16 µM, first compound 0.0949 µM
[29] = second compound 3.16 µM, first compound 0.3 µM
[30] = second compound 10 µM, first compound 0.000949 µM
[31] = second compound 10 µM, first compound 0.003 µM
[32] = second compound 10 µM, first compound 0.00949 µM
[33] = second compound 10 µM, first compound 0.03 µM
[34] = second compound 10 µM, first compound 0.0949 µM
[35] = second compound 10 µM, first compound 0.3 µM
[36] = second compound 0.1 µM, first compound 0.0316 µM
[37] = second compound 0.1 µM, first compound 0.1 µM
[38] = second compound 0.1 µM, first compound 0.316 µM
[39] = second compound 0.1 µM, first compound 1 µM
[40] = second compound 0.1 µM, first compound 3.16 µM
[41] = second compound 0.1 µM, first compound 10 µM
[42] = second compound 0.316 µM, first compound 0.0316 µM
[43] = second compound 0.316 µM, first compound 0.1 µM
[44] = second compound 0.316 µM, first compound 0.316 µM
[45] = second compound 0.316 µM, first compound 1 µM
[46] = second compound 0.316 µM, first compound 3.16 µM
[47] = second compound 0.316 µM, first compound 10 µM
[48] = second compound 1 µM, first compound 0.0316 µM
[49] = second compound 1 µM, first compound 0.1 µM
[50] = second compound 1 µM, first compound 0.316 µM
[51] = second compound 1 µM, first compound 1 µM
[52] = second compound 1 µM, first compound 3.16 µM
[53] = second compound 1 µM, first compound 10 µM
[54] = second compound 3.16 µM, first compound 0.0316 µM
[55] = second compound 3.16 µM, first compound 0.1 µM
[56] = second compound 3.16 µM, first compound 0.316 µM
[57] = second compound 3.16 µM, first compound 1 µM
[58] = second compound 3.16 µM, first compound 3.16 µM
[59] = second compound 3.16 µM, first compound 10 µM
[60] = second compound 10 µM, first compound 0.0316 µM
[61] = second compound 10 µM, first compound 0.1 µM
[62] = second compound 10 µM, first compound 0.316 µM
[63] = second compound 10 µM, first compound 1 µM
[64] = second compound 10 µM, first compound 3.16 µM
[65] = second compound 10 µM, first compound 10 µM
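Note: spheroids exposed to agents for seven days before readout.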

Nc1ccn(C2OC(CO)C(O)C2(F)F)c(=O)n1 (stereo unspecified) + NC1CCC(NC2CC2c2ccccc2)CC1
IC50 [1]: 8.36 nM
IC50 [2]: 2.64 nM
IC50 [3]: 7.34 nM
IC50 [4]: 6.64 nM
IC50 [5]: 23 nM
viability, T/C [6]: 64.2%
viability, T/C [7]: 62.6%
viability, T/C [8]: 46.7%
viability, T/C [9]: 38.7%
viability, T/C [10]: 34.5%
viability, T/C [11]: 30.1%
viability, T/C [12]: 58.4%
viability, T/C [13]: 45.5%
viability, T/C [14]: 47.8%
viability, T/C [15]: 30.8%
viability, T/C [16]: 30.6%
viability, T/C [17]: 27.3%
viability, T/C [18]: 56%
viability, T/C [19]: 55.8%
viability, T/C [20]: 48.4%
viability, T/C [21]: 36.6%
viability, T/C [22]: 34.8%
viability, T/C [23]: 31.3%
viability, T/C [24]: 70.5%
viability, T/C [25]: 52.2%
viability, T/C [26]: 47.5%
viability, T/C [27]: 45%
viability, T/C [28]: 34.8%
viability, T/C [29]: 33.1%
viability, T/C [30]: 65.2%
viability, T/C [31]: 64.7%
viability, T/C [32]: 59%
viability, T/C [33]: 47.8%
viability, T/C [34]: 40.4%
viability, T/C [35]: 43.8%

CC(C)c1c(-c2ccccc2)nc2c(C#N)c[nH]n2c1=O + NC1CC1c1ccc(-c2cccc(O)c2)cc1
IC50 [1]: > 10000 nM
IC50 [2]: > 10000 nM
IC50 [3]: > 10000 nM
IC50 [4]: > 10000 nM
IC50 [5]: > 10000 nM
viability, T/C [36]: 87.3%
viability, T/C [37]: 96.5%
viability, T/C [38]: 89.1%
viability, T/C [39]: 76.9%
viability, T/C [40]: 80.1%
viability, T/C [41]: 80.5%
viability, T/C [42]: 84%
viability, T/C [43]: 83.7%
viability, T/C [44]: 90.9%
viability, T/C [45]: 74.8%
viability, T/C [46]: 64.2%
viability, T/C [47]: 66.2%
viability, T/C [48]: 73.1%
viability, T/C [49]: 87.2%
viability, T/C [50]: 86.1%
viability, T/C [51]: 77.8%
viability, T/C [52]: 66.7%
viability, T/C [53]: 72.2%
viability, T/C [54]: 84.2%
viability, T/C [55]: 72.5%
viability, T/C [56]: 80.2%
viability, T/C [57]: 68.7%
viability, T/C [58]: 77.5%
viability, T/C [59]: 76.8%
viability, T/C [60]: 80.8%
viability, T/C [61]: 73.8%
viability, T/C [62]: 77.4%
viability, T/C [63]: 76.5%
viability, T/C [64]: 68.9%
viability, T/C [65]: 65.6%

O=C(c1cc(Cc2n[nH]c(=O)c3ccccc23)ccc1F)N1CCN(C(=O)C2CC2)CC1 + NC1CCC(NC2CC2c2ccccc2)CC1
IC50 [1]: > 10000 nM
IC50 [2]: > 10000 nM
IC50 [3]: > 10000 nM
IC50 [4]: > 10000 nM
IC50 [5]: > 10000 nM
viability, T/C [36]: 86.2%
viability, T/C [37]: 94.2%
viability, T/C [38]: 80.7%
viability, T/C [39]: 87.7%
viability, T/C [40]: 81.6%
viability, T/C [41]: 57.6%
viability, T/C [42]: 99.5%
viability, T/C [43]: 93.6%
viability, T/C [44]: 98.3%
viability, T/C [45]: 84.6%
viability, T/C [46]: 70.1%
viability, T/C [47]: 53%
viability, T/C [48]: 103%
viability, T/C [49]: 92.5%
viability, T/C [50]: 109%
viability, T/C [51]: 81%
viability, T/C [52]: 71.5%
viability, T/C [53]: 56.9%
viability, T/C [54]: 91.3%
viability, T/C [55]: 104%
viability, T/C [56]: 84.8%
viability, T/C [57]: 84.7%
viability, T/C [58]: 85.1%
viability, T/C [59]: 58.5%
viability, T/C [60]: 113%
viability, T/C [61]: 93.9%
viability, T/C [62]: 102%
viability, T/C [63]: 92.2%
viability, T/C [64]: 76.4%
viability, T/C [65]: 60%

NC1CC1c1ccc(-c2cccc(O)c2)cc1 (stereo unspecified)
IC50 (compound alone, run of 02/01/2022): > 10000 nM

Nc1ncn(C2CC(O)C(CO)S2)c(=O)n1 (stereo unspecified) + NC1CC1c1ccc(-c2cccc(O)c2)cc1
IC50 [1]: > 300 nM
IC50 [2]: > 300 nM
IC50 [3]: > 300 nM
IC50 [4]: > 300 nM
IC50 [5]: > 300 nM
viability, T/C [6]: 100%
viability, T/C [7]: 90.5%
viability, T/C [8]: 104%
viability, T/C [9]: 91%
viability, T/C [10]: 78.1%
viability, T/C [11]: 64.8%
viability, T/C [12]: 94.9%
viability, T/C [13]: 100%
viability, T/C [14]: 77.4%
viability, T/C [15]: 84.8%
viability, T/C [16]: 87%
viability, T/C [17]: 67.6%
viability, T/C [18]: 81.8%
viability, T/C [19]: 101%
viability, T/C [20]: 102%
viability, T/C [21]: 88.8%
viability, T/C [22]: 80.4%
viability, T/C [23]: 67.5%
viability, T/C [24]: 102%
viability, T/C [25]: 94.2%
viability, T/C [26]: 98.2%
viability, T/C [27]: 85.1%
viability, T/C [28]: 93.8%
viability, T/C [29]: 77%
viability, T/C [30]: 94.3%
viability, T/C [31]: 92.9%
viability, T/C [32]: 102%
viability, T/C [33]: 79.6%
viability, T/C [34]: 90.3%
viability, T/C [35]: 74.8%
